Tests used:
Assay in all cases: MEC assay (Example 31)
Assay type in all cases: cell-based
Details in all cases: RPMI pH 7.0, 35° C., 24-48 hr
A. flavus MX 5948 = test system: A. flavus MX 5948
Procedure, shortened: (§1)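 RPMI pH 7.0 (CLSI), 2-fold serial dilutions, 1.25% DMSO final (investigational). Inoc: Candida 0.5 McF 1:100; Aspergillus ~0.2-2.5×10^4 CFU/mL. 35° C., ~24-48 hr. MIC = no visible growth; MEC = small compact hyphae vs growth control.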

A. fumigatus ATCC 13073 = test system: A. fumigatus ATCC 13073
Procedure, shortened: as §1

A. fumigatus MX 5944 = test system: A. fumigatus MX 5944
Procedure, shortened: as §1

A. fumigatus MYA-3626 = test system: A. fumigatus MYA-3626
Procedure, shortened: as §1

A. fumigatus MYA-4609 = test system: A. fumigatus MYA-4609
Procedure, shortened: as §1

Compound	MEC (A. flavus MX 5948)	MEC (A. fumigatus ATCC 13073)	MEC (A. fumigatus MX 5944)	MEC (A. fumigatus MYA-3626)	MEC (A. fumigatus MYA-4609)
CC[C@H](C)C[C@H](C)CCCCCCCCC(=O)N[C@H]1C[C@@H](O)[C@@H](NCCN)NC(=O)[C@@H]2[C@@H](O)CCN2C(=O)[C@H]([C@H](O)CCNC(=O)[C@H](Cc2ccccc2)NC(=O)[C@H](CC(C)C)NC(=O)[C@H](CCSC)NC=O)NC(=O)[C@H]([C@H](O)[C@@H](O)c2ccc(O)cc2)NC(=O)[C@@H]2C[C@@H](O)CN2C(=O)[C@H]([C@@H](C)O)NC1=O [Compound 1]	0.12 to 1 µg/mL	0.12 to 2 µg/mL	0.12 to 0.5 µg/mL	0.25 to 0.5 µg/mL	0.12 to 1 µg/mL
CC[C@H](C)C[C@H](C)CCCCCCCCC(=O)N[C@H]1C[C@@H](O)[C@@H](OCCN)NC(=O)[C@@H]2[C@@H](O)CCN2C(=O)[C@H]([C@H](O)CCNC(=O)[C@H](Cc2ccccc2)NC(=O)[C@H](CC(C)C)NC(=O)[C@H](CCSC)NC=O)NC(=O)[C@H]([C@H](O)[C@@H](O)c2ccc(O)cc2)NC(=O)[C@@H]2C[C@@H](O)CN2C(=O)[C@H]([C@@H](C)O)NC1=O [Compound 11]	0.06 µg/mL	≦0.06-0.06 μg/mL	0.12 µg/mL	0.06 to 0.12 µg/mL	0.06 µg/mL
caspofungin acetate [reference compound]	≦0.015-0.06 μg/mL	≦0.03-0.06 μg/mL	0.03 to 0.12 µg/mL	≦0.03-0.12 μg/mL	≦0.03-1^ μg/mL
